In PubChem BioAssay AID330 (DTP/NCI, 2004):
Where “and” joins values, the source holds several entries; their conditions need not be identical. Equal entries are not always repeated. Inconclusive results and toxic doses are left out. How the source made its calls: active means survival T/C of 150% or more; inactive means T/C below 125% in these data.

System: P388 leukemia ip, CD2F1 mice, survival T/C
Experiment: NCI In Vivo Anticancer Drug Screen. Data for tumor model P388 Leukemia (intraperitoneal) in CD2F1 (CDF1) mice
Settings: endpoint: median survival time, higher = longer survival
Outline: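 Mice carrying the transplanted tumor received test compound or vehicle. Survival was recorded in each group, and the value is the treated-group measurement divided by that of the vehicle-treated control group.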

[1] = dose: 50.0 mg/kg/injection, schedule: Q01DX005 (ip), vehicle: saline with Tween-80
[2] = dose: 60.0 mg/kg/injection, schedule: Q01DX005 (ip), vehicle: saline with Tween-80
[3] = dose: 120.0 mg/kg/injection, schedule: Q01DX005 (ip), vehicle: saline with Tween-80
[4] = dose: 240.0 mg/kg/injection, schedule: Q01DX005 (ip), vehicle: saline with Tween-80

Measured: T/C

CC(=O)Oc1cccc2c1ccc1nonc12
inactive: [1] 88 % of control | dose: 100.0 mg/kg/injection, schedule: Q01DX005 (ip), vehicle: saline with Tween-80 88 % of control | dose: 200.0 mg/kg/injection, schedule: Q01DX005 (ip), vehicle: saline with Tween-80 88 % of control

[C-]#Cc1ccccc1.[C-]#Cc1ccccc1.[Cu+2]
inactive: dose: 12.5 mg/kg/injection, schedule: Q04DX003 (ip), vehicle: saline with Tween-80 91 % of control | dose: 25.0 mg/kg/injection, schedule: Q04DX003 (ip), vehicle: saline with Tween-80 86 % of control | dose: 50.0 mg/kg/injection, schedule: Q04DX003 (ip), vehicle: saline with Tween-80 87 % of control

CCOC(=O)c1ccc2c(c1)CCC2
inactive: dose: 50.0 mg/kg/injection, schedule: Q01DX009 (ip), vehicle: acetone 104 % of control | dose: 100.0 mg/kg/injection, schedule: Q01DX009 (ip), vehicle: acetone 104 % of control

CC(=O)O.CC(=O)O.CC(=O)O.CC(=O)O.[Rh].[Rh]
inactive: dose: 1.56 mg/kg/injection, schedule: Q01DX009 (ip), vehicle: Klucel (hydroxypropylcellulose) (HPC) 111 % of control | dose: 3.13 mg/kg/injection, schedule: Q01DX009 (ip), vehicle: Klucel (hydroxypropylcellulose) (HPC) 117 % of control | dose: 6.25 mg/kg/injection, schedule: Q01DX009 (ip), vehicle: Klucel (hydroxypropylcellulose) (HPC) 99 % of control | dose: 6.25 mg/kg/injection, schedule: Q04DX003 (ip), vehicle: saline 100 % of control | dose: 12.5 mg/kg/injection, schedule: Q01DX009 (ip), vehicle: Klucel (hydroxypropylcellulose) (HPC) 115 % of control | dose: 12.5 mg/kg/injection, schedule: Q04DX003 (ip), vehicle: saline 100 % of control | dose: 25.0 mg/kg/injection, schedule: Q04DX003 (ip), vehicle: saline 122 % of control

CC(C)CCCC(C)C1CCC2C3CC=C4CC(OC(=O)C56C=CC(=O)C5C5C=CC6CC5)CCC4(C)C3CCC12C (stereo unspecified)
inactive: dose: 1.56 mg/kg/injection, schedule: Q01DX005 (ip), vehicle: distilled water + Tween-80 100 % of control | dose: 3.12 mg/kg/injection, schedule: Q01DX005 (ip), vehicle: distilled water + Tween-80 90 % of control | dose: 200.0 mg/kg/injection, schedule: Q01DX005 (ip), vehicle: distilled water + Tween-80 86 % of control

CN1CCN(Cc2oc(CO)cc(=O)c2O)CC1
inactive: dose: 60.0 mg/kg/injection, schedule: Q01DX005 (ip), vehicle: saline 103 % of control | dose: 120.0 mg/kg/injection, schedule: Q01DX005 (ip), vehicle: saline 92 % of control | dose: 240.0 mg/kg/injection, schedule: Q01DX005 (ip), vehicle: saline 104 % of control

CC(SCc1ccccc1)C(NC(=O)CCl)C(=O)O (stereo unspecified)
inactive: dose: 100.0 mg/kg/injection, schedule: Q01DX001 (ip), vehicle: saline with Tween-80 100 % of control | dose: 200.0 mg/kg/injection, schedule: Q01DX001 (ip), vehicle: saline with Tween-80 97 % of control | dose: 400.0 mg/kg/injection, schedule: Q01DX001 (ip), vehicle: saline with Tween-80 91 % of control

CC1C(=O)C(C)C(c2ccccc2)OC1c1ccccc1 (stereo unspecified)
inactive: dose: 50.0 mg/kg/injection, schedule: Q04DX003 (ip), vehicle: saline 97 % of control | dose: 100.0 mg/kg/injection, schedule: Q04DX003 (ip), vehicle: saline 100 % of control | dose: 200.0 mg/kg/injection, schedule: Q04DX003 (ip), vehicle: saline 107 % of control

COc1ccc2c(c1OC)C[N+]1(C)CCc3cc4c(cc3C1=C2C)OCO4 (stereo unspecified)
inactive: dose: 1.56 mg/kg/injection, schedule: Q01DX005 (ip), vehicle: Klucel (hydroxypropylcellulose) (HPC) 99 % of control | dose: 3.12 mg/kg/injection, schedule: Q01DX005 (ip), vehicle: Klucel (hydroxypropylcellulose) (HPC) 99 % of control | dose: 6.25 mg/kg/injection, schedule: Q01DX005 (ip), vehicle: Klucel (hydroxypropylcellulose) (HPC) 103 % of control and 113 % of control

COC(=O)C1CC(C(=O)OC)C2C(C(=O)OC)CC(C(=O)OC)C12 (stereo unspecified)
inactive: [2] 99 % of control | [3] 96 % of control | [4] 99 % of control

NS(=O)(=O)c1cc2c(cc1Cl)NC(CCC(=O)O)=NS2(=O)=O
inactive: dose: 12.5 mg/kg/injection, schedule: Q01DX009 (ip), vehicle: distilled water + Tween-80 93 % of control | dose: 25.0 mg/kg/injection, schedule: Q01DX009 (ip), vehicle: distilled water + Tween-80 102 % of control | dose: 25.0 mg/kg/injection, schedule: Q01DX009 (ip), vehicle: other 92 % of control | dose: 50.0 mg/kg/injection, schedule: Q01DX009 (ip), vehicle: distilled water + Tween-80 98 % of control | dose: 50.0 mg/kg/injection, schedule: Q01DX009 (ip), vehicle: other 90 % of control | dose: 100.0 mg/kg/injection, schedule: Q01DX009 (ip), vehicle: distilled water + Tween-80 102 % of control | dose: 100.0 mg/kg/injection, schedule: Q01DX009 (ip), vehicle: other 90 % of control | dose: 200.0 mg/kg/injection, schedule: Q01DX009 (ip), vehicle: distilled water + Tween-80 102 % of control | dose: 400.0 mg/kg/injection, schedule: Q01DX009 (ip), vehicle: distilled water + Tween-80 98 % of control | dose: 400.0 mg/kg/injection, schedule: Q01DX009 (ip), vehicle: other 97 % of control

C/C(=N\NC(=S)NCc1ccccc1)c1nccnc1C
inactive: dose: 3.13 mg/kg/injection, schedule: Q01DX005 (ip), vehicle: saline with Tween-80 104 % of control | dose: 6.25 mg/kg/injection, schedule: Q01DX005 (ip), vehicle: saline with Tween-80 109 % of control and 112 % of control

CN(C)Cc1cn(C)c2ccccc12
inactive: dose: 12.5 mg/kg/injection, schedule: Q01DX005 (ip), vehicle: saline 99 % of control | dose: 25.0 mg/kg/injection, schedule: Q01DX005 (ip), vehicle: saline 93 % of control | dose: 50.0 mg/kg/injection, schedule: Q01DX005 (ip), vehicle: saline 98 % of control and 95 % of control

C=C[C@H]1[C@H](OC2OC(CO)C(O)C(O)C2O)OC=C2C(=O)N3CCS[C@H]3C[C@H]21 (stereo partly specified)
inactive: dose: 9.38 mg/kg/injection, schedule: Q01DX005 (ip), vehicle: Klucel (hydroxypropylcellulose) (HPC) 97 % of control | dose: 18.75 mg/kg/injection, schedule: Q01DX005 (ip), vehicle: Klucel (hydroxypropylcellulose) (HPC) 98 % of control | dose: 37.5 mg/kg/injection, schedule: Q01DX005 (ip), vehicle: Klucel (hydroxypropylcellulose) (HPC) 107 % of control | dose: 75.0 mg/kg/injection, schedule: Q01DX005 (ip), vehicle: Klucel (hydroxypropylcellulose) (HPC) 95 % of control | dose: 150.0 mg/kg/injection, schedule: Q01DX005 (ip), vehicle: Klucel (hydroxypropylcellulose) (HPC) 98 % of control

O=C(CCl)N1CCN(c2ccccc2)CC1
inactive: [2] 97 % of control | [3] 100 % of control | [4] 97 % of control

CC12CCC(Br)C(C)(C)C1CC=C1C(=O)OCC1O2 (stereo unspecified)
inactive: dose: 7.5 mg/kg/injection, schedule: Q01DX009 (ip), vehicle: Klucel (hydroxypropylcellulose) (HPC) 101 % of control | dose: 15.0 mg/kg/injection, schedule: Q01DX009 (ip), vehicle: Klucel (hydroxypropylcellulose) (HPC) 105 % of control | dose: 30.0 mg/kg/injection, schedule: Q01DX009 (ip), vehicle: Klucel (hydroxypropylcellulose) (HPC) 111 % of control | dose: 60.0 mg/kg/injection, schedule: Q01DX009 (ip), vehicle: Klucel (hydroxypropylcellulose) (HPC) 111 % of control

COc1cc2c(c(-c3cn(C)c4ccccc34)c1OC)OCO2
inactive: [2] 97 % of control | [3] 98 % of control | [4] 97 % of control

CS(=O)(=O)c1snc(N)c1C#N
inactive: dose: 12.5 mg/kg/injection, schedule: Q01DX005 (ip), vehicle: saline with Tween-80 106 % of control | dose: 25.0 mg/kg/injection, schedule: Q01DX005 (ip), vehicle: saline with Tween-80 101 % of control | [1] 102 % of control
